These results are taken from patent US20170275706A1, “ALK AND ROS KINASE IN CANCER” (priority 2010, published 2017).

The structures appear in SMILES notation.

In one test the target is T1, FIG-ROS(S) (Homo sapiens, UniProt P08922).
T1 construct: expressed in transfected cells; host or cells: BaF3 cells, retroviral transduction
Briefly: Western blotting, phosphorylation of FIG-ROS(S) in BaF3 cells. The format is cell-based. The source says: (§1) All antibodies were from Cell Signaling Technology, Inc. (Danvers, Mass.)
(§2) Since ROS, ALK, LTK, InsR, and IGFIR belong to the same family of tyrosine kinases, they may share similar structure in the kinase domain.
On the technique in general: In western blotting, separated proteins are transferred to a membrane and probed.

Test [1] deals with BaF3 cells expressing FIG-ROS(S). Kind of test: Cleaved caspase-3 flow cytometry apoptosis assay, BaF3 FIG-ROS(S). The format is cell-based. To be noted: FIG. 7; presence of TAE-684. The source says:
(§3) The mechanism of death of the BaF3 and Karpas 299 cells was next assessed by measuring the percentage of cleaved-caspase 3 positive cells by flow cytometry assay using cleaved caspase-3 as a marker for apoptosis.
(In general: A flow cytometer gives signals particle by particle.)

A further test concerns BaF3 expressing FLT3ITD. The conditions noted are these: FIG. 6; 0-1000 nM TAE-684, 72 hours. The protocol:
(§4) BaF3 and Karpas 299 cells were obtained from DSMZ (Deutsche Sammlung von Mikroorganismen und Zellkulturen GmbH, Germany). BaF3 cells, which need interleukin-3 to survive, were maintained at 37° C. in RPMI-1640 medium (Invitrogen) with 10% fetal bovine serum (FBS) (Sigma) and 1.0 ng/ml murine IL-3 (R&D Systems). Karpas 299 cells (a lymphoma cell line) were grown in RPMI-1640 with 10% FBS.
(§5) BaF3 cells were transduced with retrovirus encoding FIG-ROS(S), FIG-ROS(L), or FLT-3ITD (the Internal tandem duplication mutation in FLT3 causes AML leukemia), and selected for IL3 independent growth. Karpas 299 cells, which express NPM-ALK, was used as a positive control. Retroviruses were generated as previously described (see PCT Publication No. WO 2010/093928, incorporated by reference).
(§6) A MTS assay was performed using the CellTiter 96 Aqueous One Solution Reagent (Promega, Catalog No G3582). […] After 72 hours, 20 μl of the CellTiter 96 Aqueous One Solution Reagent was added into each well of a 96 well assay plate (flat bottom), and then 100 μl of cells grown with or without treatment. Media-only wells were used as controls. The 96 well plate was incubated for 1-4 hours at 37° C., and then viable cells were counted by reading the absorbance at 490 nm using a 96 well plate reader.

Test [2] has as its system Karpas 299 cells. To be noted: FIG. 6; 0-1000 nM TAE-684, 72 hours. The protocol: as §4, §5, §6
For test [3], the system named is Karpas 299 cells. Kind of test: Cleaved caspase-3 flow cytometry apoptosis assay, Karpas 299. The format is cell-based. The conditions noted are these: FIG. 7; presence of TAE-684.
From the text: as §3

Test [4] concerns STAT3, AKT, ERK, Shp2. Kind of test: Western blotting, downstream signaling phosphorylation in BaF3 cells transduced with FLT-3ITD. The format is cell-based. The conditions noted are these: BaF3 FLT-3ITD.
From the text: as §1, §2

The subject of test [5] is BaF3 expressing FIG-ROS(L). Kind of test: MTS cell growth assay, BaF3 cells expressing FIG-ROS(L). The format is cell-based. To be noted: FIG. 6; 0-1000 nM TAE-684, 72 hours. The protocol: as §4, §5, §6
In general terms: Tetrazolium dyes change colour on reduction, which living cells bring about.

In test [6] the test system is BaF3 cells expressing FIG-ROS(L). Kind of test: Cleaved caspase-3 flow cytometry apoptosis assay, BaF3 FIG-ROS(L). To be noted: FIG. 7; presence of TAE-684. The format is cell-based.
From the text: as §3

The test system of test [7] is STAT3, AKT, ERK, Shp2. Briefly: Western blotting, downstream signaling phosphorylation in FIG-ROS(S) and FIG-ROS(L) expressing BaF3 cells. The format is cell-based.
From the text: as §1, §2

The test system of the next test is ERK, STAT3. Kind of test: Western blotting, ERK/STAT3 phosphorylation in Karpas 299 cells. The format is cell-based.
From the text: as §1, §2

In the next test the target is FIG-ROS(L) (Homo sapiens, UniProt P08922). Briefly: Western blotting, phosphorylation of FIG-ROS(L) in BaF3 cells. The format is cell-based.
From the text: as §1, §2

In test [8] the test system is BaF3 expressing FIG-ROS(S). Briefly: MTS cell growth assay, BaF3 cells expressing FIG-ROS(S). The format is cell-based. To be noted: FIG. 6; 0-1000 nM TAE-684, 72 hours. The protocol: as §4, §5, §6
The mark [9] stands for this setting: FIG. 8, 0, 10, 50, or 100 nM TAE-684 for three hours.
Where [10] appears, read: FIG. 10, 0, 0.1, 0.3, or 1.0 uM crizotinib for three hours.

In the case of `COc1cc(N2CCC(N3CCN(C)CC3)CC2)ccc1Nc1ncc(Cl)c(Nc2ccccc2S(=O)(=O)C(C)C)n1` [TAE-684], on FIG-ROS(S) (setting [9]), the “phosphorylation of FIG-ROS(S)” value is given as “inhibited”. Besides, the “mechanism of death (cleaved-caspase 3 positive cells)” value in [1] is “die by apoptosis”; in the test with Karpas 299 cells [3], “did not die by apoptosis”; in [6], “die by apoptosis”. In addition, the cellular growth response entry with BaF3 expressing FLT3ITD was “not susceptible”; in the test on Karpas 299 cells [2], “stopped growing”; in [5] it was “stopped growing”; in test [8], “stopped growing”. For the same compound, the “phosphorylation of STAT3, AKT, and ERK, and Shp2” value in the test on STAT3, AKT, ERK, Shp2 [4] (setting [9]) is on record as “not affected”; with STAT3, AKT, ERK, Shp2 [7] (setting [9]), “inhibited”. Moreover, in the test with ERK, STAT3 (setting [9]), the ERK phosphorylation result is “inhibited”. Further, the “phosphorylation of FIG-ROS(L)” value at FIG-ROS(L) (setting [9]) was “inhibited”.

As to `C[C@@H](Oc1cc(-c2cnn(C3CCNCC3)c2)cnc1N)c1c(Cl)ccc(F)c1Cl` [crizotinib], the “phosphorylation of FIG-ROS(S)” value on FIG-ROS(S) (setting [10]) is on record as “inhibited”. Besides, the “phosphorylation of STAT3 and ERK” value is reported as “not affected” with STAT3, AKT, ERK, Shp2 [4] (setting [10]) and “inhibited” in the test on STAT3, AKT, ERK, Shp2 [7] (setting [10]). For the same compound, the “STAT3 and ERK phosphorylation” value with ERK, STAT3 (setting [10]) was “inhibited”. On FIG-ROS(L) (setting [10]), the “phosphorylation of FIG-ROS(L)” value is given as “inhibited”.
